Legend:
[1] = 100 kPa
[2] = xn = mol fraction of the nth substance listed

CN(C)CCN(C)C
[1]
Conditions | viscosity [mPa·s]
293.15 K | 0.615
303.15 K | 0.557
313.15 K | 0.493
323.15 K | 0.439

CC(=O)[O-].C[N+](C)(C)CCO + O
Conditions | viscosity [mPa·s]
[2], 298 K, 101.33 kPa, x2 = 0.8 | 30.5

CC(O)CCO (stereo unspecified) + O
viscosity [mPa·s], [2]
Conditions | 298.15 K | 303.15 K | 308.15 K | 313.15 K | 318.15 K
101 kPa, x1 = 0.0996 | 3.694 | 3.073 | 2.633 | 2.297 | 2.019
101 kPa, x1 = 0.1982 | 8.539 | 6.787 | 5.587 | 4.737 | 4.034
101 kPa, x1 = 0.2991 | 15.27 | 11.94 | 9.627 | 8.017 | 6.671
101 kPa, x1 = 0.4036 | 23.16 | 18.3 | 14.52 | 11.63 | 9.592
101 kPa, x1 = 0.4489 | 28.48 | 23.28 | 17.57 | 13.92 | 11.4
101 kPa, x1 = 0.6118 | 47.9 | 35.02 | 27.68 | 21.38 | 17.22
101 kPa, x1 = 0.6989 | 56.8 | 42.27 | 33.27 | 25.42 | 20.24
101 kPa, x1 = 0.7986 | 67.85 | 51.92 | 38.78 | 29.8 | 23.4
101 kPa, x1 = 0.8971 | 82.56 | 62.2 | 46.95 | 35.92 | 27.87
101.3 kPa, x2 = 0.045 | – | – | – | – | 28.95
101.3 kPa, x2 = 0.2499 | – | – | – | – | 20.85

CN(C)CCN(C)C + O
viscosity [mPa·s], [2], 100 kPa
Conditions | 293.15 K | 303.15 K | 313.15 K | 323.15 K
x1 = 0.001 | 1.041 | 0.83 | 0.679 | 0.564
x1 = 0.01 | 1.375 | 1.143 | 0.941 | 0.732
x1 = 0.025 | 2.406 | 1.734 | 1.303 | 1.012
x1 = 0.05 | 5.033 | 3.269 | 2.032 | 1.409
x1 = 0.075 | 8.363 | 4.972 | 2.688 | 1.769
x1 = 0.1 | 11.53 | 6.033 | 3.292 | 2.114
x1 = 0.2 | 12.82 | 7.744 | 4.885 | 3.185
x1 = 0.3 | 7.906 | 5.945 | 4.23 | 3.011
x1 = 0.399 | 3.497 | 2.56 | 1.9 | 1.45
x1 = 0.5 | 1.887 | 1.456 | 1.117 | 0.904
x1 = 0.601 | 1.344 | 1.064 | 0.853 | 0.69
x1 = 0.7 | 1.066 | 0.881 | 0.724 | 0.585
x1 = 0.8 | 0.859 | 0.733 | 0.625 | 0.52
x1 = 0.9 | 0.715 | 0.63 | 0.554 | 0.473

COCCn1cc[n+](C)c1.C[C@@H](O)[C@H](N)C(=O)[O-] + O
[2], 100 kPa, x2 = 0.6192
Conditions | viscosity [mPa·s]
298.15 K | 766.5
303.15 K | 499.5

Cc1cc[n+](CCCO)cc1.[Cl-] + O
viscosity [mPa·s], [2], 100 kPa
Conditions | x1 = 0.001799 | x1 = 0.00269 | x1 = 0.003585 | x1 = 0.005375 | x1 = 0.007144 | x1 = 0.008904
293.15 K | 1.067 | 1.092 | 1.116 | 1.161 | 1.204 | 1.244
298.15 K | 0.942 | 0.963 | 0.984 | 1.022 | 1.059 | 1.094
303.15 K | 0.84 | 0.859 | 0.876 | 0.911 | 0.943 | 0.974
308.15 K | 0.756 | 0.772 | 0.787 | 0.818 | 0.847 | 0.875
313.15 K | 0.685 | 0.699 | 0.713 | 0.741 | 0.767 | 0.792

Cl.NNC(N)=O + O
viscosity [mPa·s], [2], 101 kPa
Conditions | 293.15 K | 298.15 K | 303.15 K | 308.15 K | 313.15 K | 318.15 K
x1 = 0.000452 | 1.008 | 0.8953 | 0.8016 | 0.7228 | – | 0.6
x1 = 0.000904 | 1.014 | 0.9003 | 0.8058 | 0.7263 | 0.6589 | 0.6026
x1 = 0.00135 | – | 0.9052 | 0.81 | 0.7299 | 0.6619 | 0.6051
x1 = 0.001798 | – | 0.9101 | 0.8142 | – | – | 0.6077
x1 = 0.002249 | – | 0.915 | 0.8183 | 0.737 | 0.6679 | 0.6102
x1 = 0.00269 | 1.037 | 0.9199 | 0.8224 | 0.7404 | 0.6708 | 0.6127
x1 = 0.003585 | 1.049 | 0.9296 | 0.8306 | 0.7475 | 0.6767 | 0.6176
x1 = 0.004482 | 1.06 | 0.9395 | 0.8389 | 0.7543 | 0.6826 | 0.6226
x1 = 0.005372 | 1.072 | 0.9492 | 0.8472 | 0.7612 | 0.6884 | 0.6275
x1 = 0.006264 | 1.083 | 0.959 | 0.8554 | 0.7682 | 0.6944 | 0.6324
x1 = 0.007149 | 1.095 | 0.9687 | 0.8637 | 0.775 | 0.7001 | 0.6373

NCCNCCNCCN + O
viscosity [mPa·s], [2]
Conditions | 303.15 K | 313.15 K | 323.15 K
100 kPa, x1 = 0.006 | – | 0.78 | –
100 kPa, x1 = 0.014 | – | 0.98 | –
100 kPa, x1 = 0.03 | – | 1.69 | –
100 kPa, x1 = 0.076 | – | 6.61 | –
101 kPa, x1 = 0.0299 | 2.243 | 1.716 | 1.359
101 kPa, x1 = 0.0502 | 5.399 | 3.454 | 2.481
101 kPa, x1 = 0.0759 | 11.81 | 7.786 | 5.213
101 kPa, x1 = 0.1097 | 22.1 | 13.05 | 8.624
101 kPa, x1 = 0.156 | 38.42 | 22.22 | 14.34
101 kPa, x1 = 0.2233 | 60.39 | 32.27 | 20.32
101 kPa, x1 = 0.3302 | 82.48 | 42.63 | 26.01
101 kPa, x1 = 0.5259 | 75.67 | 38.19 | 21.84
101 kPa, x1 = 0.7007 | 50.89 | 27.24 | 15.21
101 kPa, x1 = 0.7994 | 39.76 | 21.64 | 12.67
101 kPa, x1 = 0.9242 | 31.35 | 16.13 | 10.61

[K+].[K+].[O]=[Cr](=[O])([O-])[O][Cr](=[O])(=[O])[O-] + O
viscosity [mPa·s], [2], 101 kPa
Conditions | x1 = 0.001 | x1 = 0.003 | x1 = 0.0068 | x1 = 0.015
298.15 K | 0.89 | 0.9 | 0.91 | –
312.95 K | 0.66 | 0.67 | 0.68 | 0.73

c1c[nH]cn1 + O
viscosity [mPa·s], [2], 100 kPa
Conditions | x1 = 0.0286 | x1 = 0.0621 | x1 = 0.102 | x1 = 0.15 | x1 = 0.209
298.15 K | 1.058 | 1.242 | 1.47 | 1.737 | 2.14
303.15 K | 0.944 | 1.103 | 1.301 | 1.541 | 1.881
313.15 K | 0.771 | 0.892 | 1.043 | 1.261 | 1.543
323.15 K | 0.647 | 0.742 | 0.862 | 1.034 | 1.254

c1c[nH]cn1 + O=C1CCCCCN1
[2], 101 kPa, x2 = 0.5
Conditions | viscosity [mPa·s]
303.2 K | 49.07
313.1 K | 25
323.1 K | 16.2

CC(O)CCO (stereo unspecified) + O=C1CCCN1
Conditions | viscosity [mPa·s]
[2], 308.15 K, 101 kPa, x2 = 0.7935 | 11.85

c1ccncc1 + OCC(O)CO
[2], 101 kPa
Conditions | viscosity [mPa·s]
298.15 K, x1 = 0.6001 | 17.25
298.15 K, x1 = 0.8001 | 3.155
303.15 K, x1 = 0.4 | 66.75
308.15 K, x1 = 0.1 | 275.5
313.15 K, x1 = 0.2001 | 116.5
313.15 K, x1 = 0.4 | 36.35

CCCCCCC(C)O (stereo unspecified) + c1ccccc1
viscosity [mPa·s], [2], 101 kPa
Conditions | 298.15 K | 303.15 K
x2 = 0.0555 | 5.871 | 4.689
x2 = 0.1239 | 5.076 | 4.101
x2 = 0.1912 | 4.353 | 3.577
x2 = 0.2386 | 3.886 | 3.224
x2 = 0.3153 | 3.181 | 2.703
x2 = 0.4353 | 2.241 | 2.018
x2 = 0.4865 | 1.923 | 1.764
x2 = 0.6072 | 1.318 | 1.264
x2 = 0.6941 | 1.008 | 0.986
x2 = 0.7432 | 0.876 | 0.876
x2 = 0.8011 | 0.761 | 0.754
x2 = 0.8599 | 0.693 | 0.667
x2 = 0.909 | 0.655 | 0.608
x2 = 0.9541 | 0.637 | 0.58

O=C(Cl)c1ccccc1 + c1ccccc1
[2], 303.15 K, 101 kPa
Conditions | viscosity [mPa·s]
x2 = 0.1255 | 1.176
x2 = 0.2441 | 1.108
x2 = 0.3564 | 1.04
x2 = 0.4627 | 0.9726
x2 = 0.5637 | 0.9048
x2 = 0.6596 | 0.8369
x2 = 0.7509 | 0.7688
x2 = 0.8379 | 0.7005
x2 = 0.9208 | 0.632

c1c[nH]cn1 + c1ccccc1
viscosity [mPa·s], [2], 101 kPa
Conditions | x1 = 0.003214 | x1 = 0.006433 | x1 = 0.01278 | x1 = 0.03561 | x1 = 0.03951
303.15 K | 0.57 | 0.578 | 0.595 | – | –
323.15 K | – | – | 0.457 | 0.505 | 0.513

c1ccncc1 + c1ccccc1
viscosity [mPa·s], [2], 101 kPa
Conditions | x1 = 0.3943 | x1 = 0.5905 | x1 = 0.7944 | x1 = 0.8965 | x2 = 0.2 | x2 = 0.4 | x2 = 0.6 | x2 = 0.8
293.15 K | – | – | – | – | 0.893 | 0.832 | 0.77 | 0.709
298.15 K | 0.7169 | 0.7726 | 0.8345 | 0.8601 | – | – | – | –
313.15 K | – | – | – | – | 0.678 | 0.632 | 0.585 | 0.538

c1cn[nH]c1 + c1ccccc1
viscosity [mPa·s], [2], 101 kPa
Conditions | x1 = 0.02244 | x1 = 0.04519 | x1 = 0.05005 | x1 = 0.1006
303.15 K | 0.577 | 0.597 | 0.594 | 0.627
323.15 K | 0.449 | 0.46 | 0.462 | –

— the CheMixHub viscosity set
